Experimental data from US11052092B2, “N-{[2-(piperidin-1-yl)phenyl](phenyl)methyl}-2-(3-oxo-3,4-dihydro-2H-1,4-benzoxazin-7-yl)acetamide derivatives and related compounds as ROR-gamma modulators for treating autoimmune diseases” (Genfit, priority 2017, dated 2021).
Counter-ions that a name gives are not always drawn.

Structure (SMILES)	melting point [°C]
Cc1ccc(C(NC(=O)Cc2ccc3c(c2)CS(=O)(=O)N3CC2CCOCC2)c2ccc(C)o2)c(Br)c1 (centres unmarked) (as salt: HCl) [Cpd. 68, N-[(2-bromo-4-methylphenyl)(5-methylfuran-2-yl)methyl]-2-[1-(oxan-4-ylmethyl)-2,2-dioxo-1,3-dihydro-2,1-benzothiazol-5-yl]acetamide]	92
Cc1ccc(C(NC(=O)C2(c3ccc4c(c3)CS(=O)(=O)N4C)CC2)c2ccc(C)o2)c(C)c1 (centres unmarked) (as salt: HCl) [Cpd. 70, N-[(2,4-dimethylphenyl)(5-methylfuran-2-yl)methyl]-1-(1-methyl-2,2-dioxo-1,3-dihydro-2,1-benzothiazol-5-yl)cyclopropane-1-carboxamide]	70
Cc1ccc(C(NC(=O)C2(c3ccc4c(c3)CS(=O)(=O)N4)CC2)c2ccc(C)o2)c(N(C)C)c1 (centres unmarked) (as salt: HCl) [Cpd. 71, N-{[2-(dimethylamino)-4-methylphenyl](5-methylfuran-2-yl)methyl}-1-(2,2-dioxo-1,3-dihydro-2,1-benzothiazol-5-yl)cyclopropane-1-carboxamide]	107
Cc1ccc(C(NC(=O)C2(c3ccc4c(c3)CS(=O)(=O)C4)CC2)c2ccc(Cl)o2)c(C)c1 (centres unmarked) (as salt: HCl) [Cpd. 72, N-[(5-chlorofuran-2-yl)(2,4-dimethylphenyl)methyl]-1-(2,2-dioxo-1,3-dihydro-2-benzothiophen-5-yl)cyclopropane-1-carboxamide]	80
Cc1ccc(C(NC(=O)C2(c3ccc4c(c3)CN(S(C)(=O)=O)C4)CC2)c2ccc(C)o2)c(N2CCCC2)c1 (centres unmarked) (as salt: HCl) [Cpd. 73, 1-(2-methanesulfonyl-2,3-dihydro-1H-isoindol-5-yl)-N-{[4-methyl-2-(pyrrolidin-1-yl)phenyl](5-methylfuran-2-yl)methyl}cyclopropane-1-carboxamide]	84
Cc1ccc(C(NC(=O)C2(c3ccc4c(c3)CS(=O)(=O)C4)CC2)c2ccc(C)o2)c(C)c1 (centres unmarked) (as salt: HCl) [Cpd. 74, N-[(2,4-dimethylphenyl)(5-methylfuran-2-yl)methyl]-1-(2,2-dioxo-1,3-dihydro-2-benzothiophen-5-yl)cyclopropane-1-carboxamide]	74
Cc1ccc(C(NC(=O)C2(c3ccc4c(c3)CN(S(C)(=O)=O)C4)CC2)c2ccc(C)o2)c(N(C)C)c1 (centres unmarked) (as salt: HCl) [Cpd. 76, N-{[2-(dimethylamino)-4-methylphenyl](5-methylfuran-2-yl)methyl}-1-(2-methanesulfonyl-2,3-dihydro-1H-isoindol-5-yl)cyclopropane-1-carboxamide]	70
Cc1ccc(C(NC(=O)Cc2ccc3[nH]c(C)nc3c2)c2ccc(C)o2)c(Br)c1 (centres unmarked) (as salt: HCl) [Cpd. 77, N-[(2-bromo-4-methylphenyl)(5-methylfuran-2-yl)methyl]-2-(2-methyl-1H-1,3-benzodiazol-5-yl)acetamide]	209
Cc1ccc(C(NC(=O)Cc2ccc3c(c2)CS(=O)(=O)C3)c2ccc(C)o2)c(N2CCCCC2)c1 (centres unmarked) (as salt: HCl) [Cpd. 78, 2-(2,2-dioxo-1,3-dihydro-2-benzothiophen-5-yl)-N-{[4-methyl-2-(piperidin-1-yl)phenyl](5-methylfuran-2-yl)methyl}acetamide]	87
Cc1ccc(C(NC(=O)Cc2ccc3c(c2)CN(S(C)(=O)=O)C3)c2ccc(Cl)o2)c(N2CCCCC2)c1 (centres unmarked) (as salt: HCl) [Cpd. 79, N-[(5-chlorofuran-2-yl)[4-methyl-2-(piperidin-1-yl)phenyl]methyl]-2-(2-methanesulfonyl-2,3-dihydro-1H-isoindol-5-yl)acetamide]	143
Cc1ccc(C(NC(=O)C2(c3ccc4c(c3)CN(S(C)(=O)=O)C4)CC2)c2ccc(Cl)o2)c(N2CCCC2)c1 (centres unmarked) (as salt: HCl) [Cpd. 80, N-[(5-chlorofuran-2-yl)[4-methyl-2-(pyrrolidin-1-yl)phenyl]methyl]-1-(2-methanesulfonyl-2,3-dihydro-1H-isoindol-5-yl)cyclopropane-1-carboxamide]	82
Cc1ccc(C(NC(=O)Cc2ccc3[nH]c(C)nc3c2)c2ccccc2)c(N2CCCC2)c1 (centres unmarked) (as salt: HCl) [Cpd. 82, 2-(2-methyl-1H-1,3-benzodiazol-5-yl)-N-{[4-methyl-2-(pyrrolidin-1-yl)phenyl](phenyl)methyl}acetamide]	132
Cc1ccc(C(NC(=O)Cc2ccc3c(c2)CC(=O)N3)c2ccc(Cl)o2)c(N2CCCCC2)c1 (centres unmarked) (as salt: HCl) [Cpd. 83, N-[(5-chlorofuran-2-yl)[4-methyl-2-(piperidin-1-yl)phenyl]methyl]-2-(2-oxo-2,3-dihydro-1H-indol-5-yl)acetamide]	105
Cc1ccc(C(NC(=O)C2(c3ccc4c(c3)CC(=O)N4)CC2)c2ccc(Cl)o2)c(C)c1 (centres unmarked) (as salt: HCl) [Cpd. 86, N-[(5-chlorofuran-2-yl)(2,4-dimethylphenyl)methyl]-1-(2-oxo-2,3-dihydro-1H-indol-5-yl)cyclopropane-1-carboxamide]	78
Cc1ccc(C(NC(=O)C2(c3ccc4c(c3)CS(=O)(=O)N4)CC2)c2ccc(Cl)o2)c(C)c1 (centres unmarked) (as salt: HCl) [Cpd. 87, N-[(5-chlorofuran-2-yl)(2,4-dimethylphenyl)methyl]-1-(2,2-dioxo-1,3-dihydro-2,1-benzothiazol-5-yl)cyclopropane-1-carboxamide]	86
CCOc1nc2cc(CC(=O)NC(c3ccccc3)c3ccc(C)cc3Br)ccc2[nH]1 (centres unmarked) (as salt: HCl) [Cpd. 90, N-[(2-bromo-4-methylphenyl)(phenyl)methyl]-2-(2-ethoxy-1H-1,3-benzodiazol-5-yl)acetamide]	189
CSc1ccc2cc(CC(=O)NC(c3ccc(C)o3)c3ccc(C)cc3N3CCCCC3)ccc2c1 (centres unmarked) (as salt: HCl) [Cpd. 91, N-{[4-methyl-2-(piperidin-1-yl)phenyl](5-methylfuran-2-yl)methyl}-2-[6-(methylsulfanyl)naphthalen-2-yl]acetamide]	134
Cc1ccc(C(NC(=O)Cc2ccc3[nH]c(N4CCOCC4)nc3c2)c2ccc(C)o2)c(N2CCCCC2)c1 (centres unmarked) (as salt: HCl) [Cpd. 93, N-{[4-methyl-2-(piperidin-1-yl)phenyl](5-methylfuran-2-yl)methyl}-2-[2-(morpholin-4-yl)-1H-1,3-benzodiazol-5-yl]acetamide]	125
Cc1ccc(C(NC(=O)C2(c3ccc4c(c3)CCN4C(=O)C3CC3)CC2)c2ccc(C)o2)c(C)c1 (centres unmarked) (as salt: HCl) [Cpd. 95, 1-(1-cyclopropanecarbonyl-2,3-dihydro-1H-indol-5-yl)-N-[(2,4-dimethylphenyl)(5-methylfuran-2-yl)methyl]cyclopropane-1-carboxamide]	70
Cc1ccc(C(NC(=O)Cc2ccc3c(ccn3CCC(=O)OC(C)(C)C)c2)c2ccc(C)o2)c(N2CCCCC2)c1 (centres unmarked) (as salt: HCl) [Cpd. 96, tert-butyl 3-{5-[({[4-methyl-2-(piperidin-1-yl)phenyl](5-methylfuran-2-yl)methyl}carbamoyl)methyl]-1H-indol-1-yl}propanoate]	50
Cc1ccc(C(NC(=O)Cc2ccc3[nH]cc(CCS(C)(=O)=O)c3c2)c2ccc(C)o2)c(N2CCCCC2)c1 (centres unmarked) (as salt: HCl) [Cpd. 98, 2-[3-(2-methanesulfonylethyl)-1H-indol-5-yl]-N-{[4-methyl-2-(piperidin-1-yl)phenyl](5-methylfuran-2-yl)methyl}acetamide]	107
Cc1ccc(C(NC(=O)Cc2ccc3c(ccn3CCC(=O)OC(C)(C)C)c2)c2ccc(C)o2)c(C)c1 (centres unmarked) (as salt: HCl) [Cpd. 99, tert-butyl 3-[5-({[(2,4-dimethylphenyl)(5-methylfuran-2-yl)methyl]carbamoyl}methyl)-1H-indol-1-yl]propanoate]	39
Cc1ccc(C(NC(=O)Cc2ccc3c(ccn3CCC(=O)OC(C)(C)C)c2)c2ccc(C)o2)c(Br)c1 (centres unmarked) (as salt: HCl) [Cpd. 100, tert-butyl 3-[5-({[(2-bromo-4-methylphenyl)(5-methylfuran-2-yl)methyl]carbamoyl}methyl)-1H-indol-1-yl]propanoate]	149
Cc1ccc(C(NC(=O)Cc2ccc3[nH]cc(C(=O)CS(C)(=O)=O)c3c2)c2ccc(C)o2)c(N2CCCCC2)c1 (centres unmarked) (as salt: HCl) [Cpd. 103, 2-[3-(2-methanesulfonylacetyl)-1H-indol-5-yl]-N-{[4-methyl-2-(piperidin-1-yl)phenyl](5-methylfuran-2-yl)methyl}acetamide]	139
Cc1ccc(C(NC(=O)Cc2ccc3[nH]cc(C(=O)CS(C)(=O)=O)c3c2)c2ccc(C)o2)c(Br)c1 (centres unmarked) (as salt: HCl) [Cpd. 104, N-[(2-bromo-4-methylphenyl)(5-methylfuran-2-yl)methyl]-2-[3-(2-methanesulfonylacetyl)-1H-indol-5-yl]acetamide]	206
Cc1ccc(C(NC(=O)Cc2ccc3[nH]cc(C(=O)CS(C)(=O)=O)c3c2)c2ccc(C)o2)c(C)c1 (centres unmarked) (as salt: HCl) [Cpd. 107, N-[(2,4-dimethylphenyl)(5-methylfuran-2-yl)methyl]-2-[3-(2-methanesulfonylacetyl)-1H-indol-5-yl]acetamide]	213
Cc1ccc(C(NC(=O)C2(c3ccc4[nH]ccc4c3)CC2)c2ccc(C)o2)c(C)c1 (centres unmarked) (as salt: HCl) [Cpd. 108, N-[(2,4-dimethylphenyl)(5-methylfuran-2-yl)methyl]-1-(1H-indol-5-yl)cyclopropane-1-carboxamide]	62
COc1ccc(C(NC(=O)Cc2ccc3c(ccn3CCC(=O)OC(C)(C)C)c2)c2ccc(C)o2)c(N2CCCCCC2)c1 (centres unmarked) (as salt: HCl) [Cpd. 110, tert-butyl 3-{5-[({[2-(azepan-1-yl)-4-methoxyphenyl](5-methylfuran-2-yl)methyl}carbamoyl)methyl]-1H-indol-1-yl}propanoate]	57
Cc1ccc(C(NC(=O)Cc2ccc3ccn(C(=O)N4CCOCC4)c3c2)c2ccc(C)o2)c(N2CCCCC2)c1 (centres unmarked) (as salt: HCl) [Cpd. 114, N-{[4-methyl-2-(piperidin-1-yl)phenyl](5-methylfuran-2-yl)methyl}-2-[1-(morpholine-4-carbonyl)-1H-indol-6-yl]acetamide]	85
